# Source: patent publication US5925769A, “Acetylenic 1,5-diarylpyrazoles as antiinflammatory agents” (Ortho Pharmaceutical, Corp., priority 1998, dated 1999)
# pIC50: −log10 of the molar value.
# Assays:
# [1] = molecular target: T1, 5-LO (Rattus norvegicus, UniProt P12527); assay: Procedure III: 5-LO (5-HETE) in intact RBL-1 cells; format: cell-based; conditions: calcium ionophore A 23187, read-out: Proc. III 5-LO IC50
# T1 construct: the supernatant was saved as the source of enzymes; endogenous in cells; host or cells: RBL-1 (rat basophilic leukemia) cells
# T1 sequence (P12527 1-673): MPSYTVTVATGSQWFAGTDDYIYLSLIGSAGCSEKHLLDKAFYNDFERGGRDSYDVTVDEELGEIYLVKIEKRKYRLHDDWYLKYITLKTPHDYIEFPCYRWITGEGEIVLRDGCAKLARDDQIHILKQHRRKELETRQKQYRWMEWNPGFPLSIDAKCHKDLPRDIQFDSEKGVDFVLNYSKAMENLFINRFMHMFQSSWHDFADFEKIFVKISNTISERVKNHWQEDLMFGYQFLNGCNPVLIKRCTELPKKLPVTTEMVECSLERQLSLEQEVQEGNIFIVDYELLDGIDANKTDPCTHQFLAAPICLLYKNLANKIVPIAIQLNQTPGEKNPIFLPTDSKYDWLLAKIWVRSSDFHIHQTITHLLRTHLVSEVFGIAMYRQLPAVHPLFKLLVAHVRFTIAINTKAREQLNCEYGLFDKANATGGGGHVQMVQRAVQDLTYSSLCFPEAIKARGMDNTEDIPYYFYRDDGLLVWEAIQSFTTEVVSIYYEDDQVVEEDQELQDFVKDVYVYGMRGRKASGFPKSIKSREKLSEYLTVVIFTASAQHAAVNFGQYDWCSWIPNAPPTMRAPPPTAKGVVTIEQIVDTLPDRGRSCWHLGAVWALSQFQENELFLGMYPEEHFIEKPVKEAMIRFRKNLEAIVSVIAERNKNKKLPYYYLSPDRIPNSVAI
# Summary of the method: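 Intact RBL-1 cells at 1×10^5 cells/mL in HBSS were preincubated with vehicle or drug, pelleted and resuspended, then given 1-^14C-AA. 5-HETE (5-LO) and PgD2 (CO) were separated by TLC after acidification/extraction and quantified by radioimaging; IC50 from regression curve fit.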
# [2] = molecular target: T2, Sheep seminal vesicle (SSV) cyclooxygenase (Ovis aries, UniProt P05979); assay: Procedure I: inhibition of sheep seminal vesicle (SSV) cyclooxygenase; format: biochemical; conditions: SSV cyclooxygenase; read-out: Proc. I IC50
# T2 construct: Sheep seminal vesicle (SSV) cyclooxygenase (95% pure); purchased Biomol (Plymouth Meeting, PA); host or cells: sheep seminal vesicle
# T2 sequence (P05979 25-600): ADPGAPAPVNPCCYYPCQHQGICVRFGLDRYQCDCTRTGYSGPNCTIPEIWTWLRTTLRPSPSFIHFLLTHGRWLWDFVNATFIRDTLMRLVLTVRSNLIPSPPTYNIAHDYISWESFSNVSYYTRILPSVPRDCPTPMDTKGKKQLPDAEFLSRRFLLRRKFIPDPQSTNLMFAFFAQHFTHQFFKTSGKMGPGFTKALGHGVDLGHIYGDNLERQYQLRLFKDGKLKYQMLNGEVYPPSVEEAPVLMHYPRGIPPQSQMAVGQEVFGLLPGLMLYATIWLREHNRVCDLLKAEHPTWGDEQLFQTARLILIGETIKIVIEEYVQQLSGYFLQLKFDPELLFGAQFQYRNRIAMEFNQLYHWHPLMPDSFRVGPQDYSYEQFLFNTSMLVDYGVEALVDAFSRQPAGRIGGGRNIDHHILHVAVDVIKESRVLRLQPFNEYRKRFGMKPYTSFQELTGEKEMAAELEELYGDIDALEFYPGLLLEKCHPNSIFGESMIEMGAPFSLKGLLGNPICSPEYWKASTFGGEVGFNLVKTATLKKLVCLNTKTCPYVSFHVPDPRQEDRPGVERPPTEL
# Summary of the method: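 Sheep seminal vesicle cyclooxygenase was preincubated with compound for 5 min at 37° C, then reacted with [1-14C]-arachidonic acid for 20 min. After formic acid stop and chloroform extraction, radioactive prostaglandin products were separated by TLC and scanned. Inhibition was derived from areas under the curve with and without compound.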
# [3] = test system: 5-LO; assay: Procedure IV: ex vivo eicosanoid synthesis assay using dogs, 5-LO (LTB4); format: in vivo; conditions: dog, oral, 5 mg/kg
# Method: Adult beagle or mongrel dogs (10-15 kg) of either sex were fasted overnight prior to the initiation of each experiment. The forelimb was clipped and swabbed with an alcohol prep (70% isopropanol). Blood was drawn by venipuncture into syringes containing lithium heparin (Starstead, Newton, N.C.) immediately prior to administration of compound or vehicle and then at various intervals following dosing. The test compound was administered orally as a suspension in 0.5% methocel. At various times after dosing, blood samples were drawn and placed on an electric rocker platform to assure complete and continuous mixing. White blood cell (wbc) counts were performed using a Sysmex hematology analyzer. This was done in an effort to normalize the number of leukocytes to be stimulated with calcium ionophore. A 1.0 mL aliquot of whole blood was challenged with 50 μL of a 2.6×10^-5 M solution of calcium ionophore A23187 (Calbiochem, La Jolla, Calif.) prepared in DMSO and diluted in HBSS. After a 15 minute incubation at 37° C., the reaction was stopped by placing the samples in an ice bath (4° C.) for 5 minutes and then centrifuging at 11,000×g for 5 minutes to separate the plasma fraction from blood cells. The plasma fraction was removed, diluted in an appropriate buffer, and analyzed for the presence of LTB4 and TxB2 by standard RIA techniques.
smiles,measurement,setting,value
"COc1ccc(-n2nc(C#CCN(O)C(N)=O)cc2-c2ccc(C)cc2)cc1 [Cpd 1, N-Hydroxy-N-(1(1-(4-methoxyphenyl)-5-(4-methylphenyl)pyrazol-3-yl)-1-propyn-3-yl)urea]",pIC50,[1],5.33
same,pIC50,[2],5.99
same,% inh 5-LO,[3]; 1 h,56%
same,% inh 5-LO,[3]; 2 h,53%
same,% inh 5-LO,[3]; 4 h,32%
same,% inh 5-LO,[3]; 8 h,15%
same,% inh 5-LO,[3]; 24 h,10%
